How the values were obtained:
Format in all cases: binding
Conditions in all cases: Example 1
[1] = target: T1, βCat-TCF4 (Tcf-4-βCatenin interaction) (Homo sapiens, UniProt P35222); assay: ELISA based protein-protein interaction assay, βCat-TCF4
T1 sequence (P35222 141-664 limits assumed): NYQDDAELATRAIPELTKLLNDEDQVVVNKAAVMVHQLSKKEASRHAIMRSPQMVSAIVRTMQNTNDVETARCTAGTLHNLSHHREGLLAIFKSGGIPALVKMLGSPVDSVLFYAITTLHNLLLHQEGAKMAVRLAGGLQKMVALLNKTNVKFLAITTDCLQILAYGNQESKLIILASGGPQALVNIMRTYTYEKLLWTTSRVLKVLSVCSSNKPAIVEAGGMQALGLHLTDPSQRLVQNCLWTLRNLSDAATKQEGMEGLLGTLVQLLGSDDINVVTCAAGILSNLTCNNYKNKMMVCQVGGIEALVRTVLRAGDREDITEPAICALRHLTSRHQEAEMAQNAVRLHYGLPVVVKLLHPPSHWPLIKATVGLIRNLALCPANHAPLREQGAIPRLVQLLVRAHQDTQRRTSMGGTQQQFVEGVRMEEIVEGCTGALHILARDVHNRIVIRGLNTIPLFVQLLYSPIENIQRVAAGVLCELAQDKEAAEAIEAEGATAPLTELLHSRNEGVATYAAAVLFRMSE
Description: (§1) cDNAs including the binding domains of Lgs and beta-Catenin were fused down-stream of glutathione-S-transferase (GST) cDNA in pGEX-4T inducible bacterial expression vector (Pharmacia). Similar recombinant DNA constructs were generated in the pET-32a(+) vector (Novagen) for expression of fusion protein containing the Thioredoxine-6His tag at their N-terminus. Fusion proteins were produced in BL21 bacteria (e.g. Stratagene) following manufacturer's recommendation.
(§2) To isolate the produced fusions protein, bacteria were ground in aluminum oxide (Sigma, A2039) and the resulting powder extracted in lysis buffer (140 mM NaCl, 10 mM Na2HPO4, 1.8 mM KH2PO4, 2.7 mM KCl, 1 mM EDTA, 1% Triton-X-100, 1 mM DTT and protease inhibitors) under rotation for 30 minutes. Supernatants were cleared by centrifugation then filtered on a 0.45 μm membrane before protein purification. For GST tagged protein, lysate were processed on glutathione agarose beads following manufacturer's recommendation (Amersham Pharmacia) and purified proteins eluted in 50 mM Tris-Cl, 10 mM reduced glutathione pH8.0. For thioredoxine-6His fusions, tagged proteins were purified from the lysate on a nickel chelating column (e.g. Hitrap chelating, G.E. Healthcare) using an HPLC system (e.g. Akta Prime, G.E. Healthcare) and eluted under increasing concentration of imidazole. The purified proteins solution was dialyzed against PBS before use. The quality of the preparations was checked by SDS-gel electrophoresis by standard methods well known by persons skilled in the art.
(§3) Compound preparation: Compounds can be prepared as 25 mM stock in DMSO and diluted in DMSO to reach final test concentrations of up to 100 μM. Final DMSO concentration in the assay is 5%.
(§4) 100 μl of GST fusion protein (e.g. GST-βCatenin) diluted to the appropriate concentration in phosphate buffer saline are added per well to a 96 well plate with high protein binding capacity (e.g. Nunc Maxisorp) and placed at 4° C. overnight. The following day the liquid in the wells is discarded and 150 μl 3% bovine serum albumin (BSA) in PBS are added to each well and incubated at room temperature for 2 hours under moderate shaking. This solution is then discarded and each well washed twice with 200 μl PBS. After carefully discarding the second wash, a mixture of 5 μl compound dilution and 95 μl 6His fusion protein (e.g. 6His-Bcl9) diluted to the appropriate concentration in PBS is added to each well. The plate is then incubated for 1 hour at room temperature under moderate shaking. This protein solution is then discarded and the wells washed 3 times with 200 μl 0.1% Tween-20 solution in PBS. After carefully discarding the final wash, 100 μl of anti 6His antibody conjugated to the horse-radish peroxidase (e.g. Roche antibody 11965085001) at the appropriate dilution in 1% BSA in PBS is added to the wells and the plate incubated for 1 hour at room temperature under moderate shaking. This solution is then discarded and the wells washed 3 times with 200 μl 0.1% Tween-20 solution in PBS. After carefully discarding the final wash, 100 μl of HRP substrate […] (TMB) in solution (e.g. Sigma T0440) is added to the wells and the plate incubated up to 30 minutes in the dark at room temperature. The reaction is stopped by addition of 100 μl of 2N HCl to each well and the optical density is measured at 450 nm and 630 nm.

[2] = target: T2, βCat-BCL9 (beta-Catenin/BCL9-BCL9L interaction) (Homo sapiens, UniProt P35222); assay: ELISA based protein-protein interaction assay, βCat-BCL9
T2 sequence (P35222 1-781): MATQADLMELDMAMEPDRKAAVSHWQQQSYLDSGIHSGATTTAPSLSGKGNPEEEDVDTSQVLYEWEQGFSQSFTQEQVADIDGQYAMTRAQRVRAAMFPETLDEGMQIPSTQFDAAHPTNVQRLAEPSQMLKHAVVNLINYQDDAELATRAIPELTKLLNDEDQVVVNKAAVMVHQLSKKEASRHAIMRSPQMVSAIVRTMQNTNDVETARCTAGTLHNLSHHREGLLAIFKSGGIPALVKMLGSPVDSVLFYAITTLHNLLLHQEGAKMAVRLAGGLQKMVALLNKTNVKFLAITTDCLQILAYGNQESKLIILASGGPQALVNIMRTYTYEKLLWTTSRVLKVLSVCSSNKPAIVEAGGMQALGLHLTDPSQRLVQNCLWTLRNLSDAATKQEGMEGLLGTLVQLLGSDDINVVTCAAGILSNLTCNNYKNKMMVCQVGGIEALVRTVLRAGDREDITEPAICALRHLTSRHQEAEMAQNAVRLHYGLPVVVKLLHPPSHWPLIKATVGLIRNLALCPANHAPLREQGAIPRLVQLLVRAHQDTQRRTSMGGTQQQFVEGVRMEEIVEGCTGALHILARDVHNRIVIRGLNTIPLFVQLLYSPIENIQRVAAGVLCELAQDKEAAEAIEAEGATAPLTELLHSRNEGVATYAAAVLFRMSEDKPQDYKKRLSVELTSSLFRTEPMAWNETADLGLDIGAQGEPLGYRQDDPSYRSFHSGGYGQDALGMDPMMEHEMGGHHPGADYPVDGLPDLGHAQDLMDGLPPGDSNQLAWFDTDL
Description: as §1, §2, §3, §4

[3] = target: T3, βCat-ECad (E-Cadherin-βCatenin interaction) (Homo sapiens, UniProt P35222); assay: ELISA based protein-protein interaction assay, βCat-ECad
T3 sequence (P35222 134-671 limits assumed): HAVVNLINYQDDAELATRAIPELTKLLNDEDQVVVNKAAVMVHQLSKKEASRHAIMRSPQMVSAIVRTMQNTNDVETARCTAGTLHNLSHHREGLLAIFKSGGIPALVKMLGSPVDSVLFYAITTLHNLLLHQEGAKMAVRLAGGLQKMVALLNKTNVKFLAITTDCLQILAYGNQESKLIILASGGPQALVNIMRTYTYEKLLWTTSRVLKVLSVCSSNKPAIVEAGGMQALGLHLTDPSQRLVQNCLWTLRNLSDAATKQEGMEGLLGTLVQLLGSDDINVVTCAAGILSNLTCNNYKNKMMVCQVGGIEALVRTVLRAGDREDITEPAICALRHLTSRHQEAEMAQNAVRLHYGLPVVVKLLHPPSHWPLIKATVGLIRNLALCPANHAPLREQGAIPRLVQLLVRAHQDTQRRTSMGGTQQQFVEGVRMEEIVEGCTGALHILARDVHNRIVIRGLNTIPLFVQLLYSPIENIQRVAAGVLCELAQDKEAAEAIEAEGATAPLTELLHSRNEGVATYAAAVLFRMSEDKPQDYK
Description: as §1, §2, §3, §4

Row | SMILES | IC50 [1] [µM] | IC50 [2] [µM] | IC50 [3] [µM]
1 | COC(=O)c1cc(NC(=O)c2ccc(C(=O)Nc3cc(C(=O)OC)cc(C(=O)OC)c3)nc2)cc(C(=O)OC)c1 [TGC0000160] | > 100 | 38 | –
2 | COc1cccc(NC(=O)c2ccc(C(=O)Nc3cccc(OC)c3)nc2)c1 [TGC0011280] | 23 | > 100 | 21
3 | CC(=O)c1ccc(NC(=O)c2ccc(C(=O)Nc3ccc(C(C)=O)cc3)nc2)cc1 [TGC0011285] | > 10 | 6 | > 10
4 | COC(=O)c1ccc(NC(=O)c2ccc(C(=O)Nc3ccc(C(=O)OC)cc3)nc2)cc1 [TGC0011288] | > 10 | 2 | > 10
5 | COc1ccc(CCNC(=O)c2ccc(C(=O)NCCc3ccc(OC)c(OC)c3)nc2)cc1OC [TGC0011342] | > 50 | > 50 | > 50
6 | Cc1nnc(NC(=O)c2ccc(C(=O)Nc3nnc(C)s3)nc2)s1 [TGC0011344] | 119 | 86 | 41.4
7 | O=C(Nc1cccnc1)c1ccc(C(=O)Nc2cccnc2)nc1 [TGC0011423] | > 100 | 29 | > 100
8 | O=C(NCc1ccco1)c1ccc(C(=O)NCc2ccco2)nc1 [TGC0011428] | > 50 | > 50 | > 50
9 | O=C(NCc1ccc2c(c1)OCO2)c1ccc(C(=O)NCc2ccc3c(c2)OCO3)nc1 [TGC0011430] | > 50 | > 50 | > 50

Next, values leading:

Row | IC50 [1] [µM] | IC50 [2] [µM] | IC50 [3] [µM] | SMILES
10 | > 50 | > 50 | > 50 | COc1cccc(C(=O)Nc2ccc(-c3cnc(-c4ccc(NC(=O)c5cccc(OC)c5)cc4)nc3)cc2)c1 [TGC0011528]
11 | > 100 | 68 | > 100 | CCCC(=O)Nc1ccc(-c2cnc(-c3ccc(NC(=O)CCC)cc3)nc2)cc1 [TGC0011566]
12 | 22 | > 50 | 21 | COC(=O)c1ccc(NC(=O)c2ccc(C(=O)Nc3ccc(C(=O)OC)cc3Cl)nc2)c(Cl)c1 [TGC0011605]
13 | > 10 | 3 | > 10 | O=C(Nc1ccc2oc(=O)ccc2c1)c1ccc(C(=O)Nc2ccc3oc(=O)ccc3c2)cc1 [TGC0012296]
14 | – | > 100 | – | O=C(O)c1cccc(NC(=O)c2ccc(C(=O)Nc3cccc(C(=O)O)c3)cc2)c1 [TGC0012297]
15 | – | > 10 | – | N#Cc1ccccc1NC(=O)c1ccc(C(=O)Nc2ccccc2C#N)cc1 [TGC0012300]
16 | – | > 50 | – | N#Cc1cccc(NC(=O)c2ccc(C(=O)Nc3cccc(C#N)c3)cc2)c1 [TGC0012301]
17 | > 100 | 94 | > 100 | COC(=O)c1ccc(NC(=O)c2cc(OC)c(C(=O)Nc3ccc(C(=O)OC)cc3)cc2OC)cc1 [TGC0012302]
18 | > 10 | 5 | > 10 | N#Cc1ccc(NC(=O)c2ccc(C(=O)Nc3ccc(C#N)cc3)cc2)cc1 [TGC0012303]
19 | – | 7 | – | COc1cc(NC(=O)c2ccc(C(=O)Nc3ccc(OC)c(OC)c3)nc2)cc(OC)c1 [TGC0012408]
20 | – | 5 | – | COc1ccc(NC(=O)c2ccc(C(=O)Nc3ccc(NC(C)=O)cc3)cn2)cc1 [TGC0012409]
